Several values for one entry are separate records, joined by “and”; a condition that tells them apart may be missing. Equal entries are not always repeated. Where two headings read alike, the source gives them in different places.
Experiments:
[1] = system: WNV virus like particles (VLP) that possess C, M, and E proteins; settings: for luciferase luminescence, original data (single wells, duplicates): Avg.VC 555022 / Avg.CC 1551.33 (plate 1), 522383 / 1614.33 (plate 2)
[2] = target: T1, interaction between rDIII and proteins of hBMECs (West Nile virus, UniProt P06935); assay: Blocking of interaction between rDIII and proteins of hBMECs by peptides (ELISA); format: binding, West Nile virus / human
T1 construct: rDIII – recombinant domain III; made in house; host or cells: E. coli M15
T1 sequence (P06935 584-692 limits assumed): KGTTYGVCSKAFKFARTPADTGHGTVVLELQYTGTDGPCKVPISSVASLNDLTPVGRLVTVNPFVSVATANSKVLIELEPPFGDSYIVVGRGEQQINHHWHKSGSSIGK
Procedure: First, concentration-dependent ELISA and Western blot were performed to get the minimum concentration of rDIII required to show its interaction with hBMECs proteins. Details are presented in Supplementary Method S12 and Supplementary Method S13. Subsequently, the ability of 7-mer and 12-mer peptides to block the interaction between rDIII and proteins of hBMECs was tested. A tenfold molar excess of peptides was incubated with rDIII for 1 h at room temperature. Such pre-incubated rDIII was subsequently used in the assays. Details of both methods are described in Supplementary Method S12 and Supplementary Method S13. […]
Blocking of interaction between rDIII and proteins of hBMECs by peptides (ELISA). First, different concentrations of rDIII were tested to get the minimum concentration of rDIII required to show the interaction with hBMECs proteins. Protein extract of hBMECs (4 μg/well) diluted in coating buffer (0.5 M Na2CO3, 0.5 M NaHCO3; pH 9.5) was incubated in the microtiter wells for overnight at 4°C. Unbound hBMECs proteins were washed with PBS (pH 7.3) containing 0.05% Tween 20 (0.05% PBST) and non-specific binding sites were blocked with 0.5% BSA in 0.05% PBST. rDIII at different concentrations (5 µg, 2.5 µg, 2 µg, 1 µg, 500 […]
ng, 250 ng, 125 ng, and 62.5 ng) diluted in 0.05% PBST was added into wells and incubated for 3 h at room temperature and constant shaking. Wells were washed 3 times with 0.05% PBST and incubated with HisProbe-HRP conjugate (1:5,000 dilution in 0.1% BSA in 0.05% PBST; Thermo Fisher Scientific) for 30 min at room temperature and constant shaking. […] The reaction was stopped after 25 min with 2 M H2SO4 and the absorbance was measured at 450 nm. […]
After blocking, the wells were washed 3 times with 0.05% PBST, pre-incubated rDIII was added and incubated for 3 h at room temperature with constant shaking. […] The reaction was stopped after 25 min with 2 M H2SO4 and the absorbance was measured at 450 nm. hBMECs proteins incubated with untreated rDIII were used as a positive control. […]

[3] = Hemolysis assay; format: cell-based; settings: sheep, red blood cells (washed, in saline); 1 μM and 6 μM; 1 h and 5 h; threshold for hemolytic activity > 10%; read-out: hemolysis, maximum release of the hemoglobin
Procedure: Hemolysis assay was performed according to the method of Bender et al.[94]. Details are presented in Supplementary Method S16. […]
Assessment of the hemolytic activity. Sheep whole blood (10 mL) was centrifuged at 2000 rpm for 5 min at room temperature. The red blood cells (RBCs) were carefully separated from […]
plasma and washed 3 times with saline (0.9% NaCl). The washed RBCs were resuspended in saline (50 mL). Peptides at two different concentrations (1 µM and 6 µM) resuspended in saline solution (100 µL) were added to the RBCs suspension (100 µL). As a positive control (100% lysis), 0.1% Triton X-100 was used. Negative control (0% lysis) was prepared by adding only saline (100 µL) to the RBCs suspension (100 µL). All samples were incubated at 37°C for 1 h and 5 h. The mixtures were gently shaked every 30 min. After incubation, the RBCs were separated by centrifugation (2000 rpm for 5 min) and the supernatant (100 µL) was incubated for 30 min at ambient conditions to oxidize the hemoglobin. The absorbance of oxyhemoglobin present in the supernatant was assessed by absorption at 414 nm. The assay was performed in triplicates. The hemolysis (%) of the RBCs was calculated using the following formula: Hemolysis (%) = [(Asample - xĀ negative control) / xĀ positive control] × 100. […]
(TCID50/ml) exactly as described before1. […]

With `CC[C@H](C)[C@@H]1NC(=O)[C@@H](NC(=O)[C@H](C)N)CSSC[C@@H](C(=O)NCC(=O)NCC(=O)NCC(=O)N[C@@H](CO)C(=O)O)NC(=O)[C@H](C)NC(=O)[C@H](CCCNC(=N)N)NC(=O)[C@H]([C@@H](C)O)NC(=O)[C@H](CO)NC(=O)[C@H](CO)NC(=O)[C@H](Cc2c[nH]cn2)NC1=O` [CP4, CIHSSTRAC] the EC50 ([1]; 48 h) was 17 nM, the “EC50 (neutralization of VLP) as concentration” value ([1]; 48 h) was 0.1194 µg/mL and the “luciferase luminescence, original data (single wells, duplicates)” value (from here on “luciferase luminescence, original data”) ([1]; dilution 90) was 125654 and 100462. The “Avg. inhibition of VLP infection” value ([1]; dilution of peptide 30, 666 nanograms of peptide / well) was 95%, the “Avg. inhibition of VLP infection” value ([1]; dilution of peptide 90, 222 nanograms of peptide / well) was 80% and the “Avg. inhibition of VLP infection” value ([1]; dilution of peptide 270, 74 nanograms of peptide / well) was 74%. The “Avg. inhibition of VLP infection” value ([1]; dilution of peptide 810, 24.7 nanograms of peptide / well) was 57%, the “Avg. inhibition of VLP infection” value ([1]; dilution of peptide 2430, 8.2 nanograms of peptide / well) was 33% and the “Avg. inhibition of VLP infection” value ([1]; dilution of peptide 7290, 2.7 nanograms of peptide / well) was 20%. The “luciferase luminescence, original data” value ([1]; listed as B, dilution 30) was 31234 and 31350, the “luciferase luminescence, original data” value ([1]; listed as D, dilution 270) was 151785 and 142766 and the “luciferase luminescence, original data” value ([1]; listed as E, dilution 810) was 243092 and 236564. The “luciferase luminescence, original data” value ([1]; listed as F, dilution 2430) was 368265 and 376779, the “luciferase luminescence, original data” value ([1]; listed as G, dilution 7290) was 424174 and 466082 and the “half maximal effective concentration in nanograms/ml” value ([1]; sigmoidal 4PL interpolation from EC50 dilution) was 119.48 nanograms/ml. For the same molecule, the “half maximal effective concentration in nanograms/well (150 ul)” value ([1]; well volume 150 ul, sigmoidal 4PL interpolation from EC50 dilution) was 17.94 nanograms/well, the “A450, rDIII binding to hBMECs proteins after pre-incubation with peptide” value ([2]; pre-incubated with tenfold molar excess (1.5 nM) of peptide, positive control A450 = 1.064) was 0.346 and the “inhibition of the interaction between rDIII and hBMECs proteins” value ([2]; rDIII 0.15 nM pre-incubated with tenfold molar excess (1.5 nM) of peptide, ELISA) was 67%. The hemolysis [3] was < 0.15%.

From publication PMC8505397, “Development of peptides targeting receptor binding site of the envelope glycoprotein to contain the West Nile virus infection” (Scientific Reports, 2021)
